Here are results for 14 compounds from patent US11999727B2 (Tango Therapeutics, Inc., priority 2020, dated 2024).

Test [1] concerns HAP1 MTAP-deleted cell line. In words: Viability assay, MTAP-deleted cell line. Format: cell-based. The following applies: Homo sapiens, read-out: HAP1 MTAP deleted viability. The source says: Table 1 additionally indicates IC50 values in a viability assay for the MTAP-deleted cell line (column 10), indicating the effect of treatment with compound on cell survival.
The test system of test [2] is HAP1 MTAP-intact cell line. In words: SDMA in-cell western assay, HAP1 MTAP-intact. The following applies: Homo sapiens, HAP1, SDMA in-cell western, HAP1 MTAP-intact; read-out: MTAP HAP1 intact IC50. Format: cell-based. The procedure, abridged:
(§1)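 MTAP-null vs endogenous-MTAP HAP1 isogenic cells; in-cell western SDMA readout; IC50 per line.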

Test [3] addresses T1, PRMT5 (Homo sapiens, UniProt O14744).
T1 construct: purchased Viva (custom protein)
In words: PRMT5 biochemical IC50 assay with no cofactor. Conditions: PRMT5, no cofactor. The source says:
Table 1 indicates IC50 values (μM) against PRMT5 for exemplary compounds in the presence of SAM as cofactor, with no cofactor, and with MTA as cofactor, respectively (columns 4-6). […] Ki values can be calculated from the IC50 values as described in the Examples section. As detailed in the Examples section, for the assay performed in the presence of SAM, IC50=Ki×1.5 (Ki=IC50/1.5).

The target in test [4] is T1, PRMT5. In words: PRMT5 biochemical IC50 assay with SAM as cofactor. The following applies: PRMT5, SAM as cofactor; read-out: SAM IC50.
Test [5] relates to HAP1 MTAP-deleted cell line. In words: SDMA in-cell western assay, HAP1 MTAP-deleted. It is filed as cell-based. Conditions: for IC50: Homo sapiens, HAP1, SDMA in-cell western, HAP1 MTAP-deleted; for MTAP intact/deleted ratio: SDMA in-cell western. A digest of the protocol: as §1
For test [6], the target named is T1, PRMT5. In words: PRMT5 biochemical IC50 assay with MTA as cofactor. The following applies: PRMT5, MTA as cofactor; read-out: MTA IC50.
The mark [7] stands for this setting: HAP1, viability assay, MTAP-deleted cell line.
Setting [8] is: read-out: HAP1 MTAP deleted IC50.
The mark [9] stands for this setting: HAP1, viability assay, HAP1 MTAP-deleted.
[10] abbreviates: IC50 ratio HAP1 MTAP-intact / HAP1 MTAP-deleted.
The mark [11] stands for this setting: HAP1, viability IC50, MTAP-deleted cell line.
Where [12] appears, read: read-out: HAP 1 MTAP deleted IC50.

T1 sequence (O14744 whole entry): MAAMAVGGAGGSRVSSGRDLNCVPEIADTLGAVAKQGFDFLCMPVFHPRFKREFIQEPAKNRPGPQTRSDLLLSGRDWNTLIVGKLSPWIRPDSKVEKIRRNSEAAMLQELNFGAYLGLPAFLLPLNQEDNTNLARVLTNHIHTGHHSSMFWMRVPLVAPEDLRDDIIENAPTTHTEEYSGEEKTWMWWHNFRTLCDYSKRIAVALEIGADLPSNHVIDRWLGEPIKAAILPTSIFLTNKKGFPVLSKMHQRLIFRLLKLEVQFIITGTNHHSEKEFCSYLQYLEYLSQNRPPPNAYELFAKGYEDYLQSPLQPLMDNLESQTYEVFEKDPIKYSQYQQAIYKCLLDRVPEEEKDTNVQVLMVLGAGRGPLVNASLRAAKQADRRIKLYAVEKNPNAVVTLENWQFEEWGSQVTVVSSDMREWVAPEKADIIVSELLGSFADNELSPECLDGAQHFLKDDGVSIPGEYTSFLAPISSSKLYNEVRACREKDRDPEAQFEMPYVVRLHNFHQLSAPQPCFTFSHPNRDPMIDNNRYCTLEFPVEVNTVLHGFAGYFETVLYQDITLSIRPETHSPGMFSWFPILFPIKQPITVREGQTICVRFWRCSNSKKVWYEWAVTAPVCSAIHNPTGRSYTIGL
T1 sequence (Q9BQA1 whole entry partner): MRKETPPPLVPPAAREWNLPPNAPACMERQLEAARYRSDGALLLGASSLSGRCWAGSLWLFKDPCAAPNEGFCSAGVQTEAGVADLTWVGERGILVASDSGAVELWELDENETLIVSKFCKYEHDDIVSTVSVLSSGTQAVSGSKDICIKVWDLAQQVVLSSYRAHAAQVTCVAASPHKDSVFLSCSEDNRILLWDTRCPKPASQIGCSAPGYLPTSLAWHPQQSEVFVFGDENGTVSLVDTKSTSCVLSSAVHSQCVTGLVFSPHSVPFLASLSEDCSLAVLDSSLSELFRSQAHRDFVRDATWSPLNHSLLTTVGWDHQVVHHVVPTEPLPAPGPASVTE

Regarding `CCc1cc(NC(=O)C(=O)N2C[C@@H](C)CC[C@@H]2c2ccc3sc(CCN4CCCC4)nc3c2)cnc1N` [Compound 1095, N-(6-amino-5-ethylpyridin-3-yl)-2-((2R,5S)-5-methyl-2-(2-(2-(pyrrolidin-1-yl)ethyl)benzo[d]thiazol-5-yl)piperidin-1-yl)-2-oxoacetamide], the IC50 was less than 1000 nM in test [1] (setting [7]); less than 100 nM in test [2]; less than 50 nM at PRMT5 [3] (read-out: No Cofactor/rel IC50); less than 50 nM at PRMT5 [4]; less than 100 nM in test [5] (setting [8]); less than 50 nM at PRMT5 [6]. Also, the MTAP intact/deleted ratio result in test [5] (IC50 ratio HAP1 MTAP-intact vs HAP1 MTAP-deleted) is recorded as “A (an IC50 ratio greater than or equal to 10 fold)”.

As to `CNC(=O)N1CCC([C@@H]2CC[C@@H](C)CN2C(=O)C(=O)Nc2cnc(N)c(C)c2)CC1` (racemic) [Compound 781, 4-[(2R,5S)-1-[2-[(6-amino-5-methyl-3-pyridyl)amino]-2-oxo-acetyl]-5-methyl-2-piperidyl]-N-methyl-piperidine-1-carboxamide], the IC50 in test [1] (setting [9]) is 1000 to 10000 nM; in test [2], more than 1000 nM; at PRMT5 [3] (read-out: No Cofactor/rel IC50), 50 to 500 nM; on PRMT5 [4] it was 50 to 500 nM; in test [5] (setting [8]), less than 100 nM; at PRMT5 [6] it was 50 to 500 nM. The MTAP intact/deleted ratio result in test [5] (setting [10]) is “A (an IC50 ratio greater than or equal to 10 fold)”.

In the case of `CCc1cc(NC(=O)C(=O)N2C[C@@H](C)CC[C@@H]2c2ccc3c(c2)C(=O)NC3)cnc1N` (single isomer, unassigned) [Compound 700], the IC50 was less than 1000 nM in test [1] (setting [11]); more than 1000 nM in test [2]; less than 50 nM on PRMT5 [3] (read-out: No Cofactor/rel IC50); 50 to 500 nM at PRMT5 [4]; less than 100 nM in test [5] (setting [12]); less than 50 nM on PRMT5 [6]. For the same compound, the MTAP intact/deleted ratio result in test [5] (setting [10]) is “A (an IC50 ratio greater than or equal to 10 fold)”.

On to `Cc1ncc(NC(=O)C(=O)N2C[C@H](C)CC[C@H]2c2ccc3c(c2)CCC(=O)N3)cc1C(F)(F)F` (single isomer, unassigned) [Compound 697], for which the IC50 in test [1] (setting [11]) is less than 1000 nM; in test [2], more than 1000 nM; at PRMT5 [3] (read-out: No Cofactor/rel IC50), less than 50 nM; at PRMT5 [4] it was 50 to 500 nM; in test [5] (setting [12]) it was less than 100 nM; on PRMT5 [6], less than 50 nM. Besides, the MTAP intact/deleted ratio result in test [5] (setting [10]) was “A (an IC50 ratio greater than or equal to 10 fold)”.

As for `Cc1cc(NC(=O)C(=O)N2C[C@H](C)[C@H](OC(F)(F)F)C[C@H]2c2ccc(F)cc2)cnc1N` (single isomer, unassigned) [Compound 1323], the IC50 in test [1] (HAP1, viability, HAP1 MTAP-deleted cell line) is more than 10000 nM; in test [2] it was more than 1000 nM; on PRMT5 [3] (read-out: No Cofactor/ rel IC50) it was more than 500 nM; on PRMT5 [4] it was more than 500 nM; in test [5] (setting [12]) it was more than 1000 nM; on PRMT5 [6], more than 500 nM.

Consider `C[C@H]1CC[C@H](c2ccc(F)cc2)N(C(=O)C(=O)Nc2cnc(OC(F)(F)F)c(C(N)=O)c2)C1` [Compound 1039, 5-[[2-[(2R,5S)-2-(4-fluorophenyl)-5-methyl-1-piperidyl]-2-oxo-acetyl]amino]-2-(trifluoromethoxy)pyridine-3-carboxamide], for which the IC50 in test [1] (setting [7]) lay within 1000 to 10000 nM; in test [2], 100 to 1000 nM; on PRMT5 [3] (read-out: No Cofactor/rel IC50), 50 to 500 nM; at PRMT5 [4], 50 to 500 nM; in test [5] (setting [12]) it was 100 to 1000 nM; at PRMT5 [6] it was 50 to 500 nM. The MTAP intact/deleted ratio entry in test [5] (setting [10]) was “C (an IC50 ratio of less than 3 fold)”.

On to `CCc1cc(NC(=O)C(=O)N2C[C@H](C)CC[C@H]2c2ccccc2)cnc1N` (single isomer, unassigned) [Compound 736], for which the IC50 in test [1] (setting [9]) is less than 1000 nM; in test [2], more than 1000 nM; on PRMT5 [3] (read-out: No Cofactor/rel IC50), less than 50 nM; at PRMT5 [4], 50 to 500 nM; in test [5] (setting [8]), less than 100 nM; on PRMT5 [6], less than 50 nM. Moreover, in test [5] (setting [10]), the MTAP intact/deleted ratio entry is on record as “A (an IC50 ratio greater than or equal to 10 fold)”.

Take `Cc1cc(NC(=O)C(=O)N2C[C@@H](C)CC[C@@H]2c2ccc(-c3ccn[nH]3)cc2)cnc1N` (single isomer, unassigned) [Compound 676]: the IC50 in test [1] (setting [11]) was less than 1000 nM; in test [2], 100 to 1000 nM; at PRMT5 [3] (read-out: No Cofactor/rel IC50) it was less than 50 nM; on PRMT5 [4], 50 to 500 nM; in test [5] (setting [12]), less than 100 nM; on PRMT5 [6] it was less than 50 nM. Moreover, the MTAP intact/deleted ratio result in test [5] (setting [10]) is reported as “B (an IC50 ratio greater than or equal to 3 fold but lower than 10 fold)”.

With `Cc1cc(NC(=O)C(=O)N2C[C@H](C)CC[C@H]2c2cc3[nH]ncc3s2)cnc1N` (racemic) [Compound 743, N-(6-amino-5-methylpyridin-3-yl)-2-(5-methyl-2-(1H-thieno[3,2-c]pyrazol-5-yl)piperidin-1-yl)-2-oxoacetamide], the IC50 in test [1] (setting [9]) is less than 1000 nM; in test [2] it was 100 to 1000 nM; on PRMT5 [3] (read-out: No Cofactor/rel IC50), 50 to 500 nM; at PRMT5 [4] it was 50 to 500 nM; in test [5] (setting [8]), less than 100 nM; at PRMT5 [6], 50 to 500 nM. In test [5] (setting [10]), the MTAP intact/deleted ratio entry is given as “A (an IC50 ratio greater than or equal to 10 fold)”.

Consider `C[C@@H]1CC[C@H](c2ccccn2)N(C(=O)C(=O)Nc2cncc(C(N)=O)c2)C1` (racemic) [Compound 584, 5-[[2-[(2R,5R)-5-methyl-2-(2-pyridyl)-1-piperidyl]-2-oxo-acetyl]amino]pyridine-3-carboxamide], for which the IC50 in test [1] (setting [11]) is more than 10000 nM; in test [2], more than 1000 nM; on PRMT5 [3] (read-out: No Cofactor/rel IC50) it was more than 500 nM; at PRMT5 [4], more than 500 nM; in test [5] (setting [12]), 100 to 1000 nM; at PRMT5 [6], 50 to 500 nM. In addition, in test [5] (setting [10]), the MTAP intact/deleted ratio entry is on record as “A (an IC50 ratio greater than or equal to 10 fold)”.

`Cc1ncc(NC(=O)C(=O)N2C[C@H](C)CC[C@H]2c2ccccc2)cc1C(N)=O` (single isomer, unassigned) [Compound 196]: the IC50 is more than 10000 nM in test [1] (setting [7]); more than 1000 nM in test [2]; more than 500 nM on PRMT5 [3] (read-out: No Cofactor/rel IC50); more than 500 nM at PRMT5 [4]; more than 1000 nM in test [5] (setting [8]); more than 500 nM at PRMT5 [6]. Further, in test [5] (setting [10]), the MTAP intact/deleted ratio entry is recorded as “C (an IC50 ratio of less than 3 fold)”.

Regarding `C[C@H]1CC[C@H](c2ccc3c(c2)C[C@@H](C)O3)N(C(=O)C(=O)Nc2cncc(C(N)=O)c2)C1` (single isomer, unassigned) [Compound 377], the IC50 was more than 10000 nM in test [1] (setting [7]); more than 1000 nM in test [2]; more than 500 nM at PRMT5 [3] (read-out: No Cofactor/rel IC50); more than 500 nM at PRMT5 [4]; more than 1000 nM in test [5] (setting [8]); more than 500 nM on PRMT5 [6]. Besides, the MTAP intact/deleted ratio entry in test [5] (setting [10]) is “C (an IC50 ratio of less than 3 fold)”.

`Cc1cc(NC(=O)C(=O)N2C[C@@H](C)CC[C@@H]2c2cccc(Cl)c2)cnc1N` (single isomer, unassigned) [Compound 284]: the IC50 in test [1] (setting [7]) is less than 1000 nM; in test [2] it was 100 to 1000 nM; at PRMT5 [3] (read-out: No Cofactor/rel IC50), less than 50 nM; at PRMT5 [4], 50 to 500 nM; in test [5] (setting [8]), less than 100 nM; at PRMT5 [6], less than 50 nM. Further, the MTAP intact/deleted ratio result in test [5] (setting [10]) is “A (an IC50 ratio greater than or equal to 10 fold)”.

Take `C[C@H]1CC[C@H](c2ccc(C(N)=O)s2)N(C(=O)C(=O)Nc2cncc(C(N)=O)c2)C1` (single isomer, unassigned) [Compound 796]: the IC50 is more than 10000 nM in test [1] (setting [9]); more than 1000 nM in test [2]; more than 500 nM on PRMT5 [3] (read-out: No Cofactor/rel IC50); more than 500 nM on PRMT5 [4]; more than 1000 nM in test [5] (setting [8]); more than 500 nM at PRMT5 [6]. The MTAP intact/deleted ratio result in test [5] (setting [10]) is “C (an IC50 ratio of less than 3 fold)”.
